“Also recorded” adds a separate entry of the source.
Test system: radial artery
Experiment: Radial artery diameter measured with ultrasound after topical application to the wrist
Assay type: in vivo, human
Conditions: for effect on the vasodilatory action of nitroglycerin: adjacent skin sites
Procedure: A dose escalation study of topical nitroglycerin was performed. Twenty healthy volunteers were selected based on the following inclusion criteria: willing and able to give written informed consent and comply with study requirements; and able to speak English. In addition, the subjects were selected based on the following exclusion criteria: presence or history of liver, cardiovascular, rheumatologic, cancer or renal disease; current treatment with any vasodilator therapy; systolic blood pressure of less than 90 mmHg; history of radial artery catheterization within the previous year; absence of radial artery blood flow in one or both arms; pregnancy; and active infection.
Each of the twenty selected subjects received either 15 mg or 30 mg of nitroglycerin (Nitro-Bid 2% ointment, 1 or 2 inches, E Fougera & Co, NY) applied to one wrist and a placebo (sorbolene cream) applied to the other wrist. Applications were performed as single-blind (subject) experiments. Radial artery diameter was measured with ultrasound before application of the topical compositions and at time intervals after application of the topical compositions. The subjects were tested again at a later date, where they received the alternate dose of nitroglycerin on one wrist and the placebo on the other wrist.
The same subjects received topical applications of nitroglycerin (30 mg) with either 20 mg or 40 mg of lidocaine topical cream (LMX 4%, Ferndale, Mich.). The nitroglycerin and lidocaine were applied at adjacent skin sites on the wrist.

SMILES	increase in radial artery diameter compared to the placebo (15 mg nitroglycerin topical on one wrist, healthy volunteers, FIG. 1)	increase in radial artery diameter (30 mg nitroglycerin topical on one wrist, healthy volunteers, FIG. 1)	duration of the increase in radial artery diameter (30 mg nitroglycerin topical, 2-hour application)	vasodilation (radial artery diameter versus time) (30 mg nitroglycerin topical, FIG. 1)	diameter of the radial artery in the contralateral wrist (topical nitroglycerin on the other wrist)	effect on the vasodilatory action of nitroglycerin (20 mg lidocaine topical cream with 30 mg nitroglycerin, FIG. 2)	effect on the vasodilatory action of nitroglycerin (40 mg lidocaine topical cream with 30 mg nitroglycerin, FIG. 3)	effect on arterial diameter (lidocaine alone, topical, FIG. 3)
O=[N+]([O-])OCC(CO[N+](=O)[O-])O[N+](=O)[O-] [nitroglycerin]	did not significantly increase	approximately 25%	maintained during the 2-hour application	significant vasodilation	did not affect	–	–	–
CCN(CC)CC(=O)Nc1c(C)cccc1C [lidocaine]	–	–	–	–	–	no detectable effect	did not prevent the vasodilation; also recorded: no detectable effect	no appreciable effect

From US9302085B2, “Methods and compositions for facilitating arterial access” (The Regents of the University of California, priority 2009, dated 2016)
